Measured values reported in ChEMBL document CHEMBL4665641, “Lead optimization and efficacy evaluation of quinazoline-based BET family inhibitors for potential treatment of cancer and inflammatory diseases” (Bioorg Med Chem Lett, 2019).
Activity calls are given as the source filed them. No cut-off for these calls is given here.

Experiments:
[1] = Cmax in CD-1 mouse at 10 mg/kg, po; type: ADME, organism-based; parameters: route oral, dose 10 mg/kg; conditions: CD-1, mouse, in vivo, read-out: Cmax
[2] = target: T1, Bromodomain testis-specific protein (Homo sapiens, UniProt Q58F21); test: Binding affinity to human partial length BRDT (BD2) (K250 to E382 residues) expressed in bacterial expression system by BROMOscan assay
Kasumi 1 [3] = test: Antitumor activity against human Kasumi-1 cells xenografted in CB17 SCID mouse assessed as tumor weight at 10 mg/kg, po administered for 25 days (reference value: 2.57 +/- 0.27 g); type: functional; conditions: time 25 day
MV4-11 = test: Cytotoxicity against human MV4-11 cells assessed as inhibition of cell viability; type: functional, cell-based
Mus musculus [4] = test: Antiarthritic activity in collagen/complete freund's adjuvant-induced arthritis DBA/1 mouse model assessed as paw thickness at 50 mg/kg, po administered via gavage starting from day 21 to day 41 post collagen/CFA challenge and measured on day 21 by caliper analysis (reference value: 2.48 millimeter); type: functional; conditions: time 21 day
[5] = Half life in CD-1 mouse at 2 mg/kg, iv; type: ADME, organism-based; conditions: in vivo
[6] = target: Bromodomain-containing protein 2 (Homo sapiens, UniProt P25440); test: Binding affinity to human partial length BRD2 (BD1,2) (K71 to D455 residues) expressed in bacterial expression system by BROMOscan assay
Bromodomain-containing protein 2, sequence (P25440 whole entry, the tested form may be a part): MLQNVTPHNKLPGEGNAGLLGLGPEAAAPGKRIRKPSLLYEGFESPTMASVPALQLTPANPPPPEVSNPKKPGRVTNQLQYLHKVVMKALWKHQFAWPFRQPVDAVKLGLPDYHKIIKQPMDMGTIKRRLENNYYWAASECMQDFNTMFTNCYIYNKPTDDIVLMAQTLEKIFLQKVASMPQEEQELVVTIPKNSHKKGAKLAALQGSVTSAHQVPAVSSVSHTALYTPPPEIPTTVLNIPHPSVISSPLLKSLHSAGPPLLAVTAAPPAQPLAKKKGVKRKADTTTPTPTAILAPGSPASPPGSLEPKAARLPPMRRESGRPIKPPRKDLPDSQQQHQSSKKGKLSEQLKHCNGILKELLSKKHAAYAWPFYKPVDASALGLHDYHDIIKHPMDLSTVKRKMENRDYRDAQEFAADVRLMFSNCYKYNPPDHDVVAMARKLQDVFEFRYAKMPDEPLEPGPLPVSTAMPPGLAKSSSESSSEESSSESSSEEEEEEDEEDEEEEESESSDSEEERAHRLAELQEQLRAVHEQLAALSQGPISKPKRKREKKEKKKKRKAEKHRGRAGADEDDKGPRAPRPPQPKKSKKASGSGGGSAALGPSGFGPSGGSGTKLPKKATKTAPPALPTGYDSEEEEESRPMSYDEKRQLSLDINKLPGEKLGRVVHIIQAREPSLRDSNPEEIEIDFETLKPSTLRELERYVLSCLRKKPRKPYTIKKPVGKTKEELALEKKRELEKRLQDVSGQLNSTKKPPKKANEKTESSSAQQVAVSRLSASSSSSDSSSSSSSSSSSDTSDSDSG

[7] = Apparent permeability across basolateral to apical side in human Caco2 cells; type: ADME, cell-based; conditions: caco-2
Mus musculus [8] = test: (§1) Antiinflammatory activity in collagen/complete freund's adjuvant-induced arthritis DBA/1 mouse model assessed as MCP-1 level in rear right paw at 50 mg/kg, po administered via gavage starting from day 21 to day 41 post collagen/CFA challenge and measured on day 42 measured per mg protein (reference value: 126.24 pg); type: functional; conditions: time 21 day
Mus musculus [9] = test: (§2) Antiarthritic activity in collagen/complete freund's adjuvant-induced arthritis DBA/1 mouse model assessed as reduction in inflammatory symptoms at 50 mg/kg, po administered via gavage once daily starting from day 21 to day 41 post collagen/CFA challenge and measured from day 13 to 42; type: functional, organism-based; conditions: time 21.0 day
Mus musculus [10] = test: as §2, with “in arthritis severity score” for “in inflammatory symptoms”, “measured on” for “measured from”, “day 0, 18, 21 followed by three times weekly up” for “day 13”, “42 days” for “42”; type: functional, organism-based; conditions: time 21.0 day
CYP1A2 = target: T2, CYP1A2 (Homo sapiens, UniProt P05177); test: Inhibition of human CYP1A2 at 10 uM relative to control; type: ADME
T2 sequence (P05177 whole entry): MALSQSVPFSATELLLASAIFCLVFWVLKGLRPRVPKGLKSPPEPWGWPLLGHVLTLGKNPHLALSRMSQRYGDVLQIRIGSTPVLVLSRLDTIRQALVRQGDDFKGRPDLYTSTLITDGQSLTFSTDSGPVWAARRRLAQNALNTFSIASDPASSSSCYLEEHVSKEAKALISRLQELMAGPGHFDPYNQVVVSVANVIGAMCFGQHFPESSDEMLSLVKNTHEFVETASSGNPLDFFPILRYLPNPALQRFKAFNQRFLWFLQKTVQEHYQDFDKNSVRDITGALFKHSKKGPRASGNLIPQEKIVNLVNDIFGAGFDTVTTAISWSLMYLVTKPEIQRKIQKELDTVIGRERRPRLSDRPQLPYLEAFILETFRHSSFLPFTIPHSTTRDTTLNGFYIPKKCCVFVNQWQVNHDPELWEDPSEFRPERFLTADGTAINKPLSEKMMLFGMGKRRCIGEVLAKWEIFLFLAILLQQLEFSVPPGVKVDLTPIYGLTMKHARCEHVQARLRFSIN

[11] = target: Bromodomain-containing protein 3 (Homo sapiens, UniProt Q15059); test: Binding affinity to human partial length BRD3 (BD1,2) (P24 to P416 residues) expressed in bacterial expression system by BROMOscan assay
Bromodomain-containing protein 3, sequence (Q15059 whole entry, the tested form may be a part): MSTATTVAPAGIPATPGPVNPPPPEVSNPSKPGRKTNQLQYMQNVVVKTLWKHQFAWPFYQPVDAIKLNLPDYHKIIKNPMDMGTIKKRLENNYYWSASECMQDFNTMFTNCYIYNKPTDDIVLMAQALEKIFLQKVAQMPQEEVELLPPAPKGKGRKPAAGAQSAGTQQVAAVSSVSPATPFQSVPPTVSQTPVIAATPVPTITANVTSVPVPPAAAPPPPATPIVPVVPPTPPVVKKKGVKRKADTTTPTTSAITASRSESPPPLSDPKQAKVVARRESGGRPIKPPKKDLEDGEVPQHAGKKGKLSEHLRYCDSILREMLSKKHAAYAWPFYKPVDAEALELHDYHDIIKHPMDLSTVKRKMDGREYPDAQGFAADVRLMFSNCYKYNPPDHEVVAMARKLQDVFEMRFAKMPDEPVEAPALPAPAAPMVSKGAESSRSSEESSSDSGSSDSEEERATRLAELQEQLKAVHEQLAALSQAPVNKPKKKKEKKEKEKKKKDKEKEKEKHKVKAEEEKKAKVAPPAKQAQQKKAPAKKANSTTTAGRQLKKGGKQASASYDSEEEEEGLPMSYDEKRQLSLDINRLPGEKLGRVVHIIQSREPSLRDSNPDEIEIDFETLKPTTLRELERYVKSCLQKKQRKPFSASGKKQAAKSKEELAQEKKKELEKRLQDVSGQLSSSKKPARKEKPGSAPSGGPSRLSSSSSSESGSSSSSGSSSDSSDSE

[12] = AUC(0 to infinity) in CD-1 mouse at 2 mg/kg, iv; type: ADME, organism-based; parameters: time infinity, route intravenous, dose 2 mg/kg; conditions: mouse, in vivo
[13] = Toxicity in CB17 SCID mouse xenografted with human Kasumi-1 cells assessed body weight loss at 10 to 40 mg/kg, po QD for 25 days; type: organism-based; conditions: in vivo, 600 h, dose 10-40 mg/kg, time 25 day
[14] = target: T3, Bromodomain-containing protein 4 (Homo sapiens, UniProt O60885); test: Binding affinity to human partial length BRD4 (BD1) (N44 to E168 residues) expressed in bacterial expression system by BROMOscan assay
Kasumi 1 [15] = test: Antitumor activity against human Kasumi-1 cells xenografted in CB17 SCID mouse assessed as tumor volume at 10 mg/kg, po QD for 25 days (reference value: 2189 +/- 604 mm3); type: functional; conditions: time 25 day
[16] = target: T1, Bromodomain testis-specific protein; test: Binding affinity to human partial length BRDT (BD1) (N21 to E137 residues) expressed in bacterial expression system by BROMOscan assay
[17] = Toxicity in CD1 mouse assessed as weight loss at 50 to 100 mg/kg, po administered once daily for 5 days and observed for 5 days after last dose; type: organism-based; conditions: in vivo, 120 h, dose 50-100 mg/kg, time 5 day
[18] = Cmax in CD-1 mouse at 2 mg/kg, iv measured after 5 mins; type: ADME, organism-based; parameters: route intravenous, dose 2 mg/kg; conditions: mouse, in vivo, 5 min
[19] = Stability in rat liver microsomes assessed as half life; type: ADME, Microsome
[20] = Half life in CD-1 mouse at 10 mg/kg, po; type: ADME, organism-based; conditions: in vivo
Mus musculus [21] = test: as §1, with “IP-10” for “MCP-1”, “6.23” for “126.24”; type: functional; conditions: time 21 day
[22] = Toxicity in CD1 mouse assessed as mortality at 50 to 100 mg/kg, po administered once daily for 5 days and observed for 5 days after last dose; type: organism-based; conditions: in vivo, 120 h, dose 50-100 mg/kg, time 5 day
Mus musculus [23] = test: as §1, with “IL-6” for “MCP-1”, “180.7” for “126.24”; type: functional; conditions: time 21 day
Mus musculus [24] = test: as §1, with “TNF-alpha” for “MCP-1”, “0.88” for “126.24”; type: functional; conditions: time 21 day
Kasumi 1 [25] = test: Antitumor activity against human Kasumi-1 cells xenografted in CB17 SCID mouse assessed as inhibition of tumor growth at 10 mg/kg, po QD for 25 days; type: functional; conditions: Kasumi 1, po, 600 h, time 25 day, read-out: TGI
[26] = target: T3, Bromodomain-containing protein 4; test: Binding affinity to human partial length BRD4 (BD2) (K333 to E460 residues) expressed in bacterial expression system by BROMOscan assay
[27] = Drug uptake in tumor tissue of CB17 SCID mouse xenografted with human Kasumi-1 cells at 10 mg/kg, po QD for 25 days and measured after 24 hrs post last dose; type: ADME, organism-based, Neoplasm; conditions: time 25 day, read-out: Drug uptake
Mus musculus [28] = test: as §1, with “IL-1 beta” for “MCP-1”, “3.15” for “126.24”; type: functional; conditions: time 21 day
CYP3A4 = CYP3A4 (Homo sapiens, UniProt P08684); test: Inhibition of human CYP3A4 at 10 uM using testosterone as substrate relative to control; type: ADME; conditions: probe testosterone
CYP3A4, sequence (P08684 whole entry): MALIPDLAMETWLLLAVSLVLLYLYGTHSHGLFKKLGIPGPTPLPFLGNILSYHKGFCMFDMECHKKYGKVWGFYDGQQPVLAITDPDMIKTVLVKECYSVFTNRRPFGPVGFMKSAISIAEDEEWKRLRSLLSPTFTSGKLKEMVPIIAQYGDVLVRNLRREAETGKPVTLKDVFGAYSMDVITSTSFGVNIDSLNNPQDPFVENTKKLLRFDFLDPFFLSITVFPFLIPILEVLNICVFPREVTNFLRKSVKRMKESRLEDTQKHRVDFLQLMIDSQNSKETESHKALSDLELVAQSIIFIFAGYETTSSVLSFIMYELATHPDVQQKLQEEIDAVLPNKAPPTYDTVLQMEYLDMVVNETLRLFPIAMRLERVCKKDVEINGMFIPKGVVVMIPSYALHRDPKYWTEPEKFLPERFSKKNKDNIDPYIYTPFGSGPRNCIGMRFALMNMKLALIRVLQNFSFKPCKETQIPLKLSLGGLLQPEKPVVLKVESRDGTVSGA

[29] = Stability in mouse liver microsomes assessed as half life; type: ADME, Microsome

Cc1noc(C)c1-c1ccc2nc(-c3cnn(CC(C)(C)O)c3)nc(N3CCOC[C@@H]3c3ccccc3)c2c1 gave a Cmax [1] of 2160 ng/mL, a Kd [2] of 160 nM and an Activity (Kasumi 1 [3]) of 1.51 g. The IC50 (MV4-11) was 940 nM, the Activity (Mus musculus [4]) was 1.83 mm and the half-life [5] was 102 min. The Kd [6] was 87 nM, the Papp [7] was 18.4 10^-6 cm/s and the Activity (Mus musculus [8]) was 8.48 pg. The Activity (Mus musculus [9]) was “Active”, the Activity (Mus musculus [10]) was “Active” and the inhibition at 10 µM (CYP1A2) was under 50%. For the same compound, the Kd [11] was 29 nM, the AUC [12] was 5025 ng·h/mL and the Activity [13] was “Non-Toxic”. For the same compound, the Kd [14] was 17 nM, the Activity (Kasumi 1 [15]) was 1303 mm3 and the Kd [16] was 76 nM. The Activity [17] was “Non-Toxic”, the Cmax [18] was 2337 ng/mL and the half-life [19] was 42 min. The half-life [20] was 102 min, the Activity (Mus musculus [21]) was 0.92 pg and the Activity [22] was “Non-Toxic”. It also gave an Activity (Mus musculus [23]) of 21.62 pg, an Activity (Mus musculus [24]) of 0.46 pg and an inhibition in vivo at 10 mg/kg (Kasumi 1 [25]) of 41.4%. The Kd [26] was 81 nM, the concentration at 600 h [27] was 56 ng/g and the Activity (Mus musculus [28]) was 2.06 pg. The inhibition at 10 µM (CYP3A4) was under 50% and the t1/2 [29] was 22 min.
